Data reported in PubChem BioAssay AID1745844 (Carcinogenic Potency Database (CPDB), 2022).
Calls of active or inactive are those of the source. No rule for the calls is given here.

Test system: rodent lifetime carcinogenesis bioassay, tumor incidence TD50
Experiment: chronic cancer bioassays in animals – CPDB, compiled studies (AID 1745844)

In the case of `N[C@@H](CCC(=O)NNc1ccc(C(=O)O)cc1)C(=O)O`, the TD50 (mouse, strain Swiss albino, females, by gavage, site: liver, lesion: several types, types named in the paper, dosed 52 weeks, study length 133 weeks) is reported as 41400 mg/kg/day, the TD50 (mouse, strain Swiss albino, males, by gavage, site: lung, lesion: several types, types named in the paper, dosed 52 weeks, study length 133 weeks) is reported as 250 mg/kg/day and the TD50 (mouse, strain Swiss albino, males, by gavage, site: subcutaneous tissue, lesion: fibrosarcoma, dosed 52 weeks, study length 133 weeks) is reported as 277 mg/kg/day.
`CCCCN(N=O)C(N)=O` showed a TD50 (rat, strain F344/DuCrj, females, in drinking water, site: all sites, lesion: several types, types named in the paper, dosed 50 weeks, study length 50 weeks) of 24.7 mg/kg/day, a TD50 (rat, strain F344/DuCrj, females, in drinking water, site: digestive tract, lesion: several types, types named in the paper, dosed 50 weeks, study length 50 weeks) of 1.3 mg/kg/day and a TD50 (rat, strain F344/DuCrj, females, in drinking water, site: ear duct, lesion: several types, types named in the paper, dosed 50 weeks, study length 50 weeks) of 11.6 mg/kg/day. For the same compound, the TD50 (rat, strain F344/DuCrj, females, in drinking water, site: ear duct, lesion: squamous-cell carcinoma, sebaceous, dosed 50 weeks, study length 50 weeks) was 19.4 mg/kg/day, the TD50 (rat, strain F344/DuCrj, females, in drinking water, site: esophagus, lesion: papilloma, dosed 50 weeks, study length 50 weeks) was 6.58 mg/kg/day and the TD50 (rat, strain F344/DuCrj, females, in drinking water, site: esophagus, lesion: several types, types named in the paper, dosed 50 weeks, study length 50 weeks) was 3.21 mg/kg/day. For the same compound, the TD50 (rat, strain F344/DuCrj, females, in drinking water, site: esophagus, lesion: squamous-cell carcinoma, dosed 50 weeks, study length 50 weeks) was 8.05 mg/kg/day, the TD50 (rat, strain F344/DuCrj, females, in drinking water, site: forestomach, lesion: papilloma, dosed 50 weeks, study length 50 weeks) was 4 mg/kg/day and the TD50 (rat, strain F344/DuCrj, females, in drinking water, site: forestomach, lesion: several types, types named in the paper, dosed 50 weeks, study length 50 weeks) was 2.43 mg/kg/day. The TD50 (rat, strain F344/DuCrj, females, in drinking water, site: forestomach, lesion: squamous-cell carcinoma, dosed 50 weeks, study length 50 weeks) was 10.2 mg/kg/day, the TD50 (rat, strain F344/DuCrj, females, in drinking water, site: pharynx, lesion: several types, types named in the paper, dosed 50 weeks, study length 50 weeks) was 8.05 mg/kg/day and the TD50 (rat, strain F344/DuCrj, females, in drinking water, site: pharynx, lesion: squamous-cell carcinoma, dosed 50 weeks, study length 50 weeks) was 10.2 mg/kg/day. The TD50 (rat, strain F344/DuCrj, females, in drinking water, site: tongue, lesion: papilloma, dosed 50 weeks, study length 50 weeks) was 13.5 mg/kg/day, the TD50 (rat, strain F344/DuCrj, females, in drinking water, site: tongue, lesion: several types, types named in the paper, dosed 50 weeks, study length 50 weeks) was 10.2 mg/kg/day and the TD50 (rat, strain F344/DuCrj, females, in drinking water, site: vagina, lesion: papilloma, dosed 50 weeks, study length 50 weeks) was 6 mg/kg/day. The TD50 (rat, strain F344/DuCrj, females, in drinking water, site: vagina, lesion: several types, types named in the paper, dosed 50 weeks, study length 50 weeks) was 5.05 mg/kg/day, the TD50 (rat, strain F344/DuCrj, males, in drinking water, site: all sites, lesion: several types, types named in the paper, dosed 50 weeks, study length 50 weeks) was 10.2 mg/kg/day and the TD50 (rat, strain F344/DuCrj, males, in drinking water, site: digestive tract, lesion: several types, types named in the paper, dosed 50 weeks, study length 50 weeks) was 0.91 mg/kg/day. The TD50 (rat, strain F344/DuCrj, males, in drinking water, site: duodenum, lesion: several types, types named in the paper, dosed 50 weeks, study length 50 weeks) was 11.8 mg/kg/day, the TD50 (rat, strain F344/DuCrj, males, in drinking water, site: ear duct, lesion: several types, types named in the paper, dosed 50 weeks, study length 50 weeks) was 11.8 mg/kg/day and the TD50 (rat, strain F344/DuCrj, males, in drinking water, site: esophagus, lesion: papilloma, dosed 50 weeks, study length 50 weeks) was 4.08 mg/kg/day. For the same compound, the TD50 (rat, strain F344/DuCrj, males, in drinking water, site: esophagus, lesion: several types, types named in the paper, dosed 50 weeks, study length 50 weeks) was 3.02 mg/kg/day, the TD50 (rat, strain F344/DuCrj, males, in drinking water, site: esophagus, lesion: squamous-cell carcinoma, dosed 50 weeks, study length 50 weeks) was 17 mg/kg/day and the TD50 (rat, strain F344/DuCrj, males, in drinking water, site: forestomach, lesion: papilloma, dosed 50 weeks, study length 50 weeks) was 3.25 mg/kg/day. For the same compound, the TD50 (rat, strain F344/DuCrj, males, in drinking water, site: forestomach, lesion: several types, types named in the paper, dosed 50 weeks, study length 50 weeks) was 2.62 mg/kg/day, the TD50 (rat, strain F344/DuCrj, males, in drinking water, site: palate, soft, lesion: several types, types named in the paper, dosed 50 weeks, study length 50 weeks) was 11.8 mg/kg/day and the TD50 (rat, strain F344/DuCrj, males, in drinking water, site: palate, soft, lesion: squamous-cell carcinoma, dosed 50 weeks, study length 50 weeks) was 17 mg/kg/day. The TD50 (rat, strain Fischer 344, females, by gavage, site: colon, lesion: one or several types, types not named, dosed 40 weeks, study length 104 weeks) was 2.31 mg/kg/day, the TD50 (rat, strain Fischer 344, females, by gavage, site: forestomach, lesion: one or several types, types not named, dosed 40 weeks, study length 104 weeks) was 0.267 mg/kg/day and the TD50 (rat, strain Fischer 344, females, by gavage, site: lung, lesion: several types, types named in the paper, dosed 40 weeks, study length 104 weeks) was 0.277 mg/kg/day. The TD50 (rat, strain Fischer 344, females, by gavage, site: mammary gland, lesion: adenocarcinoma, dosed 40 weeks, study length 104 weeks) was 0.758 mg/kg/day, the TD50 (rat, strain Fischer 344, females, by gavage, site: uterus, lesion: several types, types named in the paper, dosed 40 weeks, study length 104 weeks) was 0.551 mg/kg/day and the TD50 (rat, strain Fischer 344, males, by gavage, site: colon, lesion: one or several types, types not named, dosed 40 weeks, study length 104 weeks) was 1.61 mg/kg/day. The TD50 (rat, strain Fischer 344, males, by gavage, site: forestomach, lesion: one or several types, types not named, dosed 40 weeks, study length 104 weeks) was 0.259 mg/kg/day, the TD50 (rat, strain Fischer 344, males, by gavage, site: lung, lesion: several types, types named in the paper, dosed 40 weeks, study length 104 weeks) was 0.187 mg/kg/day and the TD50 (rat, strain MRC-Wistar, females, in drinking water, site: all sites, lesion: myelocytic leukemia, dosed 39 weeks, study length 85 weeks) was 3.27 mg/kg/day. The TD50 (rat, strain MRC-Wistar, females, in drinking water, site: any site (literature study), lesion: one or several types, types not named, dosed 39 weeks, study length 85 weeks) was 1.02 mg/kg/day, the TD50 (rat, strain MRC-Wistar, females, in drinking water, site: liver, lesion: one or several types, types not named, dosed 39 weeks, study length 85 weeks) was 6.63 mg/kg/day and the TD50 (rat, strain MRC-Wistar, females, in drinking water, site: mammary gland, lesion: one or several types, types not named, dosed 39 weeks, study length 85 weeks) was 6.63 mg/kg/day (inactive). The TD50 (rat, strain MRC-Wistar, males, in drinking water, site: all sites, lesion: myelocytic leukemia, dosed 39 weeks, study length 85 weeks) was 2.86 mg/kg/day, the TD50 (rat, strain MRC-Wistar, males, in drinking water, site: any site (literature study), lesion: one or several types, types not named, dosed 39 weeks, study length 85 weeks) was 1.64 mg/kg/day and the TD50 (rat, strain MRC-Wistar, males, in drinking water, site: liver, lesion: one or several types, types not named, dosed 39 weeks, study length 85 weeks) was 26.1 mg/kg/day.
